Laboratory results reported in patent US5234934A, “Aminopropanol derivatives, process for their preparation and pharmaceutical compositions comprising the same” (priority 1989, dated 1993).
Like-named read-outs stand apart in the source and are kept apart here.

How the values were obtained:
[1] = system: coronary insufficiency caused by vasopressine; assay: antianginal effect on rats (vasopressine coronary insufficiency, Nieschulz); format: in vivo, rat; conditions: for ED50: Rattus norvegicus, read-out: ED50 (antianginal)
Procedure: The test was carried out by using rats weighing 180 to 220 g. The animals were narcotised by chloralose urethane (70 to 700 mg/kg ip.). The ECG alterations were registered in standard II lead with the aid of needle electrodes. The antianginal effect was measured with Nieschultz's method. The coronary insufficiency was caused by vasopressine (1 NE/kg, iv.). The size of the T-wave was measured before and after administration of vasopressine in both the control and test groups. The compounds of the invention were administered 2 minutes before the administration of vasopressine. (Nieschulz, O., Popendiker, K., Hoffmann, I.: Arzneimittel-Forschung 5, 680/1955/)

[2] = system: peristalty of stomach and intestines; assay: effect exerted on the peristalty of stomach and intestines (Stickney et al., carbon suspension); format: in vivo, mouse; conditions: po., mice; for ED50: Mus musculus, read-out: ED50 (antiperistaltic); for TI (therapeutic index): antiperistaltic
Procedure: The antiperistaltic effect of the compounds was examined by the method of Stickney et al. on white mice of both sexes, weighing 20 to 25 g. The compounds to be tested were administered per os 60 minutes before the addition of carbon suspension to groups containing 10 mice each. The animals of the control groups were treated at the same time and in the same manner with the carrier only. The mice were killed 10 minutes after the addition of the carbon suspension, and the whole length of the intestines as well as the length of the intestines filled with carbon suspension were measured.

[3] = acute toxicity test in mice (Litchfield and Wilcoxon); format: in vivo, mouse; conditions: mouse, in vivo, po., 14 days observation
Procedure: (§1) The test for acute toxicity was carried out by using 10 white mice (CFLP strain) (both male and female), weighing 18 to 22 g in each dose group. The compounds of the invention were administered orally in a dose of 20 ml/kg.
(§2) The animals were kept in a plastic box on wood chips in a room of room temperature. They could consume tap water and standard mouse feed ad libitum. The toxicity data were determined by the method of Litchfield and Wilcoxon (Litchfield, J. T., Wilcoxon, F. W.: J. Pharmacol. Exp. Ther. 96, 99/1949/).

gastric acid secretion = gastric acid secretion test (Shay); format: in vivo, rat; conditions: rats
Procedure: The test was carried out according to Shay's operational method. […] On the day of the test the pylorus of the animals was bound under ether narcosis. The test compounds were administered orally 3 hours before the operation. The animals of the control group were administered with the carrier only. 4 hours after the operation the stomach was removed, the content thereof was centrifuged and the amount of free acid was determined by titration with 0.1N sodium hydroxide.

hexobarbital narcosis = assay: narcosis potentiating effect (hexobarbital sleeping time); conditions: for ED50: Mus musculus, po, read-out: ED50 (narcosis potentiation); for TI (therapeutic index): narcosis potentiation
Procedure: The narcosis potentiating effect of the compounds of the invention were examined on white mice, with 6 animals in each group. The mice were administered orally with the compounds of the invention, then both the control and the test groups were intravenously added 40 mg/kg of hexobarbital in order to make the mice sleep (Kaergard et al.).

nervus ischiadicus = assay: local analgesic effect (Truant d'Amato's method); format: in vivo; conditions: for EC50 %: 0.2 ml injected around nervus ischiadicus; for Duration of effect: in a conc. of 0.5%
Procedure: The tests were carried out according to Truant d'Amato's method. 0.2 ml of test material was injected around the nervus ischiadicus in the middle of femur with a needle of 1 cm length. The criterion of analgesic effect was the lack of the motoric control of foot muscles.
The duration of effect was registered and the 50 percentile effective concentration (EC50) was calculated on the basis of the dose-effect curve. Lidocain was used as comparative material. (Truant, A. P., D'Amato, D.: Acta Chir Scand. 116, 351/1958/)

LD50 po. on rat = conditions: in vivo
[4] = system: aconitine-induced ECG alterations; assay: animal or person; format: in vivo, rat; conditions: for ED50 / change in vivo at 4 mg/kg / change in vivo at 100 mg/kg: Rattus norvegicus; for change in vivo at 4 mg/kg / change in vivo at 100 mg/kg: read-out: Effect % (antiarrhythmic)
Procedure: The test was carried out by using the modified method of Marmo et al. on rats weighing 160 to 200 g. The animals were narcotised by ethyl uretane (1.2 g/kg ip.). Aconitin was administered intravenously in a dose of 75 /ug/kg in the form of a bolus injection. The ECG alterations were monitored in standard II lead by 5 minutes after the administration of aconitine. The observed alterations were classified into classes 0 to 5. The compounds of the invention were administered 2 minutes or 60 minutes before the parenteral or oral administration of aconitine, respectively. […]
class 1: sometimes an extrasystole occurs class 2: each second one is an extrasystole class 3: extrasystoles in groups class 4: each one is an extrasystole class 5: fibrillation, death
(Marmo, E., DiGiacomo, S., Imperatore, A.: Arzeimittel-Forschung 20, 12/1970/)

[5] = absorption judged by ED50 per os/ED50 iv; conditions: in vivo
From the text: The compounds of formula I according to the invention can well be absorbed if administered either orally or parenterally.

level of lipids = conditions: background art; cited from earlier work
beta-adrenergic = conditions: background art; cited from earlier work
white mice (CFLP strain) = assay: acute toxicity test in mice (Litchfield and Wilcoxon); format: in vivo, mouse; conditions: po., 14 days observation
Procedure: as §1, §2

blood pressure = conditions: background art; cited from earlier work
[6] = iv., rats, vasopressine 1 NE/kg iv
[7] = Rattus norvegicus, dose 200 mg/kg po., read-out: Inhibition of free acid, %
[8] = iv, read-out: ED50 iv. (antiarrhythmic)
[9] = po, read-out: ED50 (antiarrhythmic, per os)

For `CN(C)CCCNCC(O)CO/N=C1\CCCC\C1=C/c1ccccc1` (racemic) [Example 11, R,S-2-(E)-Phenylmethylene-1-(E)-[3-(3-dimethylamino-1-propylamino)-2-hydroxy-propoxyimino]-cyclohexane], the ED50 [1, 6] was 0.93 mg/kg, the ED50 [2] was 100 mg/kg and the “TI (therapeutic index)” value [2] was 10. It also gave an LD50 at 336 h [3] greater than 1000 mg/kg and an inhibition in vivo at 200 mg/kg (gastric acid secretion; [7]) of 62%.
In the case of `CCCNCC(O)CO/N=C1\CCCCC\C1=C/c1ccc(OC)cc1` (racemic) [Example 43, R,S-2-(E)-(4'-Methoxyphenyl-methylene)-1-(E)-(3-propylamino-2-hydroxy-propoxyimino)-cycloheptane], the ED50 [1, 6] is reported as roughly 2 mg/kg, the ED50 (hexobarbital narcosis) is reported as 50 mg/kg and the “TI (therapeutic index)” value (hexobarbital narcosis; mice, po.) is reported as 16. The LD50 at 336 h [3] was 800 mg/kg and the inhibition in vivo at 160 mg/kg (gastric acid secretion; Rattus norvegicus, dose 160 mg/kg po., read-out: Inhibition of free acid, %) was 32%.
In the case of `CC(C)N(CC(O)CO/N=C1\CCCC\C1=C/c1ccccc1)C(C)C` (racemic) [Example 1, R,S-2-(E)-Phenylmethylene-1-(E)-{3-[bis-(1-methylethyl)-amino]-2-hydroxy-propoxyimino}-cyclohexane], the EC50 % (nervus ischiadicus) is reported as 0.04%, the ED50 [2] is reported as roughly 80 mg/kg and the “TI (therapeutic index)” value [2] is reported as “about 5”. For the same compound, the LD50 at 336 h [3] was 400 mg/kg, the LD50 (LD50 po. on rat) was 1760 mg/kg and the ED50 ([4]; iv, read-out: ED50 iv) was 1.21 mg/kg. For the same compound, the ED50 [4, 8] was 1.21 mg/kg, the change in vivo at 4 mg/kg ([4]; iv) was -89.5% and the ED50 [4, 9] was 27.3 mg/kg. For the same compound, the ED50 ([4]; po, read-out: ED50 per os) was 24.4 mg/kg, the change in vivo at 100 mg/kg ([4]; po) was -100% and the “effect compared to the control compounds regarding the absolute dose” value ([4]; administered orally) was “multiplied effect compared to the control compounds”. The “TI (therapeutic index)” value ([4]; antiarrhythmic, per os, rat) was 64.6, the “therapeutical activity range, times higher than that of Quinidine” value ([4]; per os, rats, vs Quinidine) was 5.8 times and the inhibition in vivo at 200 mg/kg (gastric acid secretion; [7]) was 70%. The absorption ratio (ED50 po / ED50 iv) [5] was 20.6 and the absorption ([5]; po) was “much better than that of the cited compound of formula (e)”.
`CC(C)NCC(O)CO/N=C1\CCCCC1Cc1ccc(Cl)cc1` (racemic) [Example 47, R,S-2-(E)-(4-Chlorophenyl-methyl)-1-(E)-[3-(1-methylethyl-amino)-2-hydroxy-propoxyimino]-cyclohexane] showed an ED50 [1, 6] of 1.29 mg/kg, an EC50 % (nervus ischiadicus) of 0.18% and a Duration of effect (nervus ischiadicus) of 93 min. It also gave an LD50 at 336 h [3] of 700 mg/kg.
`C=C[C@H]1C[N@@]2CC[C@H]1C[C@@H]2[C@@H](O)c1ccnc2ccc(OC)cc12` [Quinidine, reference compound] showed an LD50 (LD50 po. on rat) of 1130 mg/kg, an ED50 [4, 8] of 9.85 mg/kg and a change in vivo at 4 mg/kg ([4]; iv) of -29%. It also gave an ED50 [4, 9] of roughly 100 mg/kg and a change in vivo at 100 mg/kg ([4]; po) of -52%.
For `OC(CON=Cc1ccc(Cl)cc1)CN1CCN(c2ccccc2Cl)CC1` (stereo not shown) [Peraclopone], the “reduction of the level of lipids” value (level of lipids) is listed as “reduces the level of lipids”.
Compound `OC(CO/N=C1\CCCC\C1=C/c1ccccc1)CN1CC=C(c2ccccc2)CC1` (racemic) [Example 55, R,S-2-(E)-Phenylmethylene-1-(E)-[3-(4-phenyl-1,2,3,6-tetrahydro)-1-pyridinyl]-2-hydroxy-propoxyimino-cyclohexane] has an ED50 ([1]; iv) of 1.77 mg/kg and an LD50 at 336 h [3] greater than 1000 mg/kg.
In the case of `CN1CCN(CC(O)CO/N=C2\CCCC\C2=C/c2c(Cl)cccc2Cl)CC1` (racemic) [Example 36, R,S-2-(E)-(2,6-Dichlorophenyl-methylene)-1-(E)-[3-(4-methyl-1-piperazinyl)-2-hydroxy-propoxyimino]-cyclohexane], the ED50 [1, 6] is reported as 1.28 mg/kg, the ED50 (hexobarbital narcosis) is reported as 14 mg/kg and the “TI (therapeutic index)” value (hexobarbital narcosis; mice, po.) is reported as 50. For the same compound, the ED50 [2] was roughly 100 mg/kg, the “TI (therapeutic index)” value [2] was “about 7” and the LD50 at 336 h [3] was 700 mg/kg.
For `CC(C)(C)NCC(O)CON=C1c2ccccc2-c2ccccc21` (stereo not shown) [IPS-339], the beta-adrenergic blocking effect (beta-adrenergic) is given as “exhibits beta-adrenergic blocking effect”.
In the case of `CCCNCC(O)CO/N=C1\CCCC\C1=C/c1ccc(Cl)cc1` (stereo not shown) [Example 46, R,S-2-(E)-(4-Chlorophenyl-methylene)-1-(E)-(3-propylamino-2-hydroxypropoxyimino)-cyclohexane], the EC50 % (nervus ischiadicus) is reported as 0.19%, the Duration of effect (nervus ischiadicus) is reported as 81 min and the LD50 (white mice (CFLP strain)) is reported as “more than 1000 mg/kg”.
Compound `CCCN(CCC)CC(O)CO/N=C1\CCCCC\C1=C/c1ccc(OC)cc1` (racemic) [Example 51, R,S-2-(E)-(4-Methoxyphenyl-methylene)-1-(E)-(3-dipropylamino-2-hydroxy-propoxyimino)-cycloheptane] has an ED50 [1, 6] of 0.43 mg/kg, an EC50 % (nervus ischiadicus) of 0.28% and a Duration of effect (nervus ischiadicus) of 103 min. For the same compound, the LD50 at 336 h [3] was 100 to 500 mg/kg.
For `COc1cccc(C=NOCC(O)CN2CCN(c3ccccc3OC)CC2)c1` (stereo not shown) [Paradoxime], the “blood pressure reducing activity” value (blood pressure) is given as “shows blood pressure reducing activity”.
With “R,S-2-(E)-Chlorophenylmethylene-1-(E)-[3-(4-phenyl-1-piperazinyl)-2-hydroxy-propoxyimino]-cyclohexane [Example 24]” the “TI (therapeutic index)” value [2] was “about 7”, the “ED50 (antiperistaltic)” value [2] was “about 150 mg/kg” and the LD50 (white mice (CFLP strain)) was “more than 1000 mg/kg”.
Work on `OC(CO/N=C1\CCCC\C1=C/c1ccccc1)CN1CCCCCC1` (racemic) [Example 10, R,S-2-(E)-Phenylmethylene-1-(E)-(3-hexamethylene-imino-2-hydroxypropoxyimino)-cyclohexane] yielded an ED50 [1, 6] of 1.62 mg/kg, an LD50 at 336 h [3] of 900 mg/kg and a change in vivo at 4 mg/kg ([4]; iv) of -47%.
In the case of `CC(C)NCC(O)CO/N=C1\CCCC\C1=C/c1ccc(Cl)cc1` (stereo not shown) [Example 26, R,S-2-(E)-(4-Chlorophenyl-methylene)-1-(E)-[3-(1-methylethylamino)-2'-hydroxy-propoxyimino]-cyclohexane], the “ED50 (antianginal)” value [1, 6] is reported as “about 2.0 mg/kg”, the EC50 % (nervus ischiadicus) is reported as 0.22% and the Duration of effect (nervus ischiadicus) is reported as 49 min. For the same compound, the “TI (therapeutic index)” value (hexobarbital narcosis; mice, po.) was greater than 7, the “ED50 (narcosis potentiation)” value (hexobarbital narcosis; po., mice, hexobarbital 40 mg/kg iv) was 140 mg/kg and the LD50 (white mice (CFLP strain)) was “more than 1000 mg/kg”. For the same compound, the “Inhibition of free acid, %” value (gastric acid secretion; dose 100 mg/kg po.) was 66% and the “Inhibition of free acid, %” value (gastric acid secretion; dose 200 mg/kg po.) was 92%.
For `CC(C)CNCC(O)CON=C1CCCCC1=Cc1cccc(Cl)c1` (stereo not shown) [Example 25, R,S-2-(E)-3-Chlorophenylmethylene-1-(E)-[3-(2-methylpropyl-amino)-2-hydroxy-propoxyimino]-cyclohexane], the LD50 (white mice (CFLP strain)) was 900 mg/kg.
`CC(Cc1ccccc1)NCCC(c1ccccc1)c1ccccc1` (stereo not shown) [Prenilamine, reference compound] gave an ED50 ([1]; iv) of 6.5 mg/kg.
`CCN(CC)CC(O)CO/N=C1\CCCCC\C1=C/c1ccc(OC)cc1` (racemic) [Example 44, R,S-2-(E)-(4-Methoxyphenyl-methylene)-1-(E)-(3-diethylamino-2-hydroxy-propoxyimino)-cycloheptane] showed an ED50 [1, 6] of 1.93 mg/kg and an LD50 at 336 h [3] of 600 mg/kg.
For `CC(=NOCC(O)CNC(C)(C)C)C1CC1` (stereo not shown) [Falintolol], the beta-adrenergic blocking effect (beta-adrenergic) is listed as “exhibits beta-adrenergic blocking activity”.
